Laboratory results from ChEMBL document CHEMBL1201862, “PubChem BioAssay data set” (2004).
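Compound exposure: 48 hours, 5 concentrations, 96-well plates. Here, GI50 denotes the concentration required for 50% inhibition of growth.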 Calls of active or inactive are those of the source. Rule as the data show it: active = GI50 up to about 1.1 µM and inactive = higher.

Tests used:
Assay in all cases: NCI-60 cell line screen, 48 h
SNB-19 = system: SNB-19
A498 = system: A498
BT-549 = system: BT-549
SN12C = system: SN12C
COLO 205 = system: COLO 205
IGROV-1 = system: IGROV-1
Malme-3M = system: Malme-3M
K562 = system: K562
EKVX = system: EKVX
OVCAR-5 = system: OVCAR-5
PC-3 = system: PC-3
SK-MEL-28 = system: SK-MEL-28
LOX IMVI = system: LOX IMVI
SR = system: SR
OVCAR-8 = system: OVCAR-8
OVCAR-3 = system: OVCAR-3
NCI/ADR-RES = system: NCI/ADR-RES
HOP-92 = system: HOP-92
SF-295 = system: SF-295
RPMI-8226 = system: RPMI-8226

Structure (SMILES)	GI50 (SNB-19)	GI50 (A498)	GI50 (BT-549)	GI50 (SN12C)	GI50 (COLO 205)	GI50 (IGROV-1)	GI50 (Malme-3M)	GI50 (K562)	GI50 (EKVX)	GI50 (OVCAR-5)	GI50 (PC-3)	GI50 (SK-MEL-28)	GI50 (LOX IMVI)	GI50 (SR)	GI50 (OVCAR-8)	GI50 (OVCAR-3)	GI50 (NCI/ADR-RES)	GI50 (HOP-92)	GI50 (SF-295)	GI50 (RPMI-8226)
NP(=O)(OCC1=CC(=O)c2ccccc2C1=O)N(CCBr)CCBr (configuration not stated)	18.3 µM (inactive)	20.8 µM (inactive)	2.09 µM (inactive)	10.6 µM (inactive)	2.2 µM (inactive)	12.6 µM (inactive)	0.979 µM (active)	3.05 µM (inactive)	15.3 µM (inactive)	22.3 µM (inactive)	10.9 µM (inactive)	4.23 µM (inactive)	3.96 µM (inactive)	0.399 µM (active)	12.1 µM (inactive)	3.02 µM (inactive)	8.49 µM (inactive)	13.3 µM (inactive)	8.81 µM (inactive)	11.6 µM (inactive)
COc1ccc2c(c1)CCc1c(-c3noc4c3CCc3cc(OC)ccc3-4)noc1-2	> 100 µM (inactive)	> 100 µM (inactive)	> 100 µM (inactive)	> 100 µM (inactive)	> 100 µM (inactive)	> 100 µM (inactive)	> 100 µM (inactive)	> 100 µM (inactive)	53.1 µM (inactive)	> 100 µM (inactive)	> 100 µM (inactive)	> 100 µM (inactive)	> 100 µM (inactive)	> 100 µM (inactive)	> 100 µM (inactive)	> 100 µM (inactive)	> 100 µM (inactive)	> 100 µM (inactive)	> 100 µM (inactive)	> 100 µM (inactive)
Cc1ccc(S(=O)(=O)O)cc1.c1cc2c(c(NC3=NCCN3)c1)CCCC2	> 100 µM (inactive)	> 100 µM (inactive)	> 100 µM (inactive)	> 100 µM (inactive)	> 100 µM (inactive)	> 100 µM (inactive)	> 100 µM (inactive)	> 100 µM (inactive)	> 100 µM (inactive)	> 100 µM (inactive)	> 100 µM (inactive)	> 100 µM (inactive)	> 100 µM (inactive)	> 100 µM (inactive)	> 100 µM (inactive)	> 100 µM (inactive)	> 100 µM (inactive)	> 100 µM (inactive)	> 100 µM (inactive)	> 100 µM (inactive)
Oc1ccc(/N=C/c2ccc(/C=N/c3ccc(O)cc3)cc2)cc1	16 µM (inactive)	24.3 µM (inactive)	17.4 µM (inactive)	14.9 µM (inactive)	18.5 µM (inactive)	20 µM (inactive)	18 µM (inactive)	17.5 µM (inactive)	32.1 µM (inactive)	19.3 µM (inactive)	16.3 µM (inactive)	18.8 µM (inactive)	16.1 µM (inactive)	6.44 µM (inactive)	13.8 µM (inactive)	16.3 µM (inactive)	14.8 µM (inactive)	24.7 µM (inactive)	16.8 µM (inactive)	10.1 µM (inactive)
CN1C/C(=C\c2cccs2)C2=NC(=S)NC(c3cccs3)C2C1 (configuration not stated)	> 100 µM (inactive)	61.8 µM (inactive)	46.1 µM (inactive)	> 100 µM (inactive)	31.8 µM (inactive)	46.3 µM (inactive)	16 µM (inactive)	44.7 µM (inactive)	56.4 µM (inactive)	> 100 µM (inactive)	> 100 µM (inactive)	93.3 µM (inactive)	67.9 µM (inactive)	18.2 µM (inactive)	40.7 µM (inactive)	76.4 µM (inactive)	44.4 µM (inactive)	33.6 µM (inactive)	42.8 µM (inactive)	29.9 µM (inactive)
COc1cc(Cn2c3c(c4cc(O)ccc42)C(=O)c2ccccc2C3=O)cc(OC)c1	4.5 µM (inactive)	15.4 µM (inactive)	1.82 µM (inactive)	5.09 µM (inactive)	12.6 µM (inactive)	2.11 µM (inactive)	8.22 µM (inactive)	–	15.3 µM (inactive)	9.23 µM (inactive)	2.46 µM (inactive)	7.96 µM (inactive)	31.7 µM (inactive)	0.494 µM (active)	3.55 µM (inactive)	20.6 µM (inactive)	6 µM (inactive)	1.85 µM (inactive)	6.85 µM (inactive)	0.337 µM (active)
Cc1cc(=O)oc2c(C3=NN(C=O)C(c4ccccc4)C3)c(O)ccc12 (configuration not stated)	47.4 µM (inactive)	> 56.2 µM (inactive)	65.6 µM (inactive)	90.2 µM (inactive)	> 71.8 µM (inactive)	70 µM (inactive)	> 71.9 µM (inactive)	> 91 µM (inactive)	72.6 µM (inactive)	> 87.7 µM (inactive)	> 74.1 µM (inactive)	> 100 µM (inactive)	> 72.4 µM (inactive)	60.1 µM (inactive)	71.1 µM (inactive)	> 71.3 µM (inactive)	61.9 µM (inactive)	23 µM (inactive)	10 µM (inactive)	> 79.3 µM (inactive)
CCN(CCO)CCNc1ccc(C)c2sc3ccccc3c(=O)c12	11 µM (inactive)	15 µM (inactive)	13.4 µM (inactive)	5.24 µM (inactive)	1.63 µM (inactive)	4.2 µM (inactive)	3.44 µM (inactive)	4.31 µM (inactive)	12.5 µM (inactive)	5.15 µM (inactive)	3.31 µM (inactive)	2.02 µM (inactive)	2.24 µM (inactive)	6.01 µM (inactive)	4.06 µM (inactive)	10.2 µM (inactive)	3.07 µM (inactive)	4.37 µM (inactive)	3.82 µM (inactive)	4.28 µM (inactive)
CCOC(=O)C(Br)(C(N)=O)C1(O)OC(c2ccccc2)=C(Br)C1=O (configuration not stated)	> 100 µM (inactive)	> 100 µM (inactive)	19.2 µM (inactive)	17.2 µM (inactive)	17 µM (inactive)	20.5 µM (inactive)	25.2 µM (inactive)	22.4 µM (inactive)	23.2 µM (inactive)	21.1 µM (inactive)	19.2 µM (inactive)	80.9 µM (inactive)	21.3 µM (inactive)	18.2 µM (inactive)	17.5 µM (inactive)	25.8 µM (inactive)	60.3 µM (inactive)	–	> 100 µM (inactive)	12.4 µM (inactive)
CCNC(=O)Cc1nc2c(N)ncnc2n1C1OC(CO)C(O)C1O (configuration not stated)	> 100 µM (inactive)	> 100 µM (inactive)	> 100 µM (inactive)	> 100 µM (inactive)	74 µM (inactive)	> 100 µM (inactive)	> 100 µM (inactive)	> 100 µM (inactive)	> 100 µM (inactive)	–	> 100 µM (inactive)	> 100 µM (inactive)	> 100 µM (inactive)	> 100 µM (inactive)	> 100 µM (inactive)	> 100 µM (inactive)	> 100 µM (inactive)	> 100 µM (inactive)	> 100 µM (inactive)	> 100 µM (inactive)
COc1ccccc1NC1Oc2cc3c(cc2C(c2cc(OC)c(OC)c(OC)c2)C1C)OCO3 (configuration not stated)	6.56 µM (inactive)	4.9 µM (inactive)	2.84 µM (inactive)	5.57 µM (inactive)	1.95 µM (inactive)	3.24 µM (inactive)	0.383 µM (active)	0.875 µM (active)	> 26.1 µM (inactive)	6.64 µM (inactive)	1.12 µM (active)	> 25.1 µM (inactive)	6.62 µM (inactive)	1.03 µM (active)	4.69 µM (inactive)	1.52 µM (inactive)	2.59 µM (inactive)	3.24 µM (inactive)	0.689 µM (active)	1.93 µM (inactive)
[N-]=[N+]=Nc1ccc(CNc2cc(=O)[nH]c(=O)[nH]2)cc1	> 100 µM (inactive)	> 100 µM (inactive)	> 100 µM (inactive)	> 100 µM (inactive)	> 100 µM (inactive)	> 95.7 µM (inactive)	> 100 µM (inactive)	> 100 µM (inactive)	> 100 µM (inactive)	> 100 µM (inactive)	> 100 µM (inactive)	> 50.7 µM (inactive)	> 100 µM (inactive)	> 100 µM (inactive)	> 100 µM (inactive)	> 100 µM (inactive)	> 100 µM (inactive)	> 100 µM (inactive)	> 100 µM (inactive)	> 100 µM (inactive)
Cc1[nH]n(-c2ncc(C(=O)O)c(=O)[nH]2)c(=O)c1CCO	> 100 µM (inactive)	> 100 µM (inactive)	> 100 µM (inactive)	> 100 µM (inactive)	> 88.9 µM (inactive)	> 100 µM (inactive)	> 100 µM (inactive)	> 100 µM (inactive)	> 100 µM (inactive)	> 100 µM (inactive)	> 100 µM (inactive)	> 100 µM (inactive)	> 100 µM (inactive)	> 37 µM (inactive)	> 100 µM (inactive)	> 100 µM (inactive)	> 100 µM (inactive)	> 88.1 µM (inactive)	> 100 µM (inactive)	> 100 µM (inactive)
O=C1/C(=N/CCc2cc(Br)c(O)c(Br)c2)C=C(O)c2cccnc21	2.3 µM (inactive)	3.08 µM (inactive)	1.37 µM (inactive)	1.35 µM (inactive)	1.75 µM (inactive)	2.07 µM (inactive)	1.21 µM (inactive)	1.56 µM (inactive)	8.47 µM (inactive)	2.03 µM (inactive)	3.92 µM (inactive)	1.78 µM (inactive)	0.634 µM (active)	0.771 µM (active)	4.38 µM (inactive)	1.59 µM (inactive)	4.75 µM (inactive)	7.94 µM (inactive)	1.2 µM (inactive)	2.82 µM (inactive)
